These results are taken from US20220177477A1 (Central China Normal University, priority 2019, published 2022).

The target in one data set is T1, TRKA (Homo sapiens, UniProt P04629).
T1 construct: purchased Carna Biosciences 08-186
The experiment in a line: In vitro biochemical HTRF KinEASE kinase inhibition, TRKA. To be noted: wild-type kinase, final ATP 3.727 μmol/L; read-out: TRKA IC50.

The target in the next data set is T2, TRKB (Homo sapiens, UniProt Q16620).
T2 construct: purchased Carna Biosciences 08-187
As to the kind of experiment: In vitro biochemical HTRF KinEASE kinase inhibition, TRKB. To be noted: wild-type kinase, final ATP 2.56 μmol/L. The protocol:
The material and the method are as follows: wild-type kinases such as TRKA, TRKB and TRKC, and mutant kinases such as TRKA-G595R, TRKA-G667C, TRKA-F589L, TRKC-G623R and TRKC-G696A, and are derived from Carna Biosciences 08-186, 08-187, 08-197; HTRF KinEASE TKkit (Cisbio 62TKO PEC); 384 well plates (Greiner corporation); ATP (Life technologies PV 3227), MgCl2 (sigma); PHERAstar FS Multifunctional microplate reader (BMG Co.); low speed centrifuge (StaiteXiangyi corporation); incubator (Binder company).
Preparing a compound working solution: the dispensed compounds were removed from the freezer prior to testing and diluted to 100× concentration with pure DMSO; then the compound was diluted to the desired concentration of 4× with deionized water;
Preparation of 1.33× enzyme buffer (enzyme buffer): 5× enzyme buffer (from HTRF kit) was diluted to 1.33× with deionized water and the corresponding ingredients were added at a final concentration of 1.33×: 1.33 mmol/L Dithiothreitol (DTT), 1.33 mmol/L MnCl2, 6.65 mmol/L MgCl2 and 39.9 nmol/L SEB;
Preparation of a kinase working solution: TRKA, TRKB and TRKC were diluted with 1.33× enzyme buffer to the required concentrations of 2× of 0.404 ng/μL, 0.304 ng/μL and 0.236 ng/μL, respectively;
Preparing a substrate working solution: a mixture of TK Substrate Blr diluted to the desired final concentration of 4× (from HTRF kit) and ATP (10 mM) with 1.33× enzyme buffer; the final ATP concentrations for TRKA, TRKB, and TRKC were: 3.727 μmol/L, 2.56 μmol/L and 2.526 μmol/L. The TK Substrate-biotin (from HTRF KinEASE TKkit) final concentrations were all: 0.2 μmol/L.
Preparing a detection working solution: 16.67 μmol/L of Streptavidin-XL665 (Streptavidin-XL 665) were diluted to the desired final concentration of 4× with HTRF test buffer and then mixed with an equal volume of Antibody-europium Cryptate (Antibody-Cryptate) (both from HTRF kits).
An enzyme reaction step: add 4 μL of kinase working solution to each well of a low volume 384 microwell plate along with 4 μL of 1.33× enzyme buffer as a Negative control (Negative); add 2 μl of compound working solution to the wells, while adding 2 μl of […] aqueous solution as a zero compound concentration control (i.e., Positive control, Positive); incubating at 25° C. for 5 min; add 2 μL of substrate working solution to the wells to start the enzymatic reaction, shake the reaction for 30 min at 37° C.
HTRF reagent detection step: adding […] to the hole to terminate the reaction; reacting for 1 h at 25° C.;
Reading of HTRF signal: the PHERAstar FS reading is adopted to detect signals, and the corresponding setting of the instrument is as follows:
For the raw data read out per well, the ratio=665 nm/620 nm;
Calculation of inhibition rate:
Calculation of IC50 values: with the logarithm of the compound concentration as abscissa and the inhibition as ordinate, a non-linear curve was fitted in GraphPad Prism 5: log (inhibitor) vs. response—Variable slope, and calculating the concentration of the compound to be detected, namely IC50, when the enzyme activity inhibition rate is 50%.

The next data set deals with T3, TRKC (Homo sapiens, UniProt Q16288).
T3 construct: purchased Carna Biosciences 08-197
The experiment in a line: In vitro biochemical HTRF KinEASE kinase inhibition, TRKC. The conditions noted are these: wild-type kinase, final ATP 2.526 μmol/L.

Another data set addresses T4, TRKA-G595R (Homo sapiens, UniProt P04629, G595R).
T4 construct: purchased Carna Biosciences
The experiment in a line: TRK kinase mutant inhibition (HTRF), TRKA-G595R. It counts as biochemical.

In a further data set the target is T5, TRKA-G667C (Homo sapiens, UniProt P04629, G667C).
T5 construct: purchased Carna Biosciences
As to the kind of experiment: TRK kinase mutant inhibition (HTRF), TRKA-G667C. It counts as biochemical.

A further data set deals with T6, TRKA-F589L (Homo sapiens, UniProt P04629, F589L).
T6 construct: purchased Carna Biosciences
As to the kind of experiment: TRK kinase mutant inhibition (HTRF), TRKA-F589L. It is filed as biochemical.

The target of a further data set is T7, TRKC-G623R (Homo sapiens, UniProt Q16288, G623R).
T7 construct: purchased Carna Biosciences
As to the kind of experiment: TRK kinase mutant inhibition (HTRF), TRKC-G623R. It is filed as biochemical.

A further data set deals with T8, TRKC-G696A (Homo sapiens, UniProt Q16288, G696A).
T8 construct: purchased Carna Biosciences
As to the kind of experiment: TRK kinase mutant inhibition (HTRF), TRKC-G696A. It counts as biochemical.

Data set [1] is described as follows: Drug metabolism study in rats, oral administration. The conditions noted are these: rat; for CL / Vz: oral 5 mg/kg; for AUC(0-t) / Cmax / MRT last / Tmax / bioavailability / half-life: plasma, po, 5 mg/kg.
The nature of data set [2]: Drug metabolism study in rats, intravenous administration. The conditions noted are these: rat, plasma, iv, 1 mg/kg.

T7 sequence (Q16288 32-839 G623R): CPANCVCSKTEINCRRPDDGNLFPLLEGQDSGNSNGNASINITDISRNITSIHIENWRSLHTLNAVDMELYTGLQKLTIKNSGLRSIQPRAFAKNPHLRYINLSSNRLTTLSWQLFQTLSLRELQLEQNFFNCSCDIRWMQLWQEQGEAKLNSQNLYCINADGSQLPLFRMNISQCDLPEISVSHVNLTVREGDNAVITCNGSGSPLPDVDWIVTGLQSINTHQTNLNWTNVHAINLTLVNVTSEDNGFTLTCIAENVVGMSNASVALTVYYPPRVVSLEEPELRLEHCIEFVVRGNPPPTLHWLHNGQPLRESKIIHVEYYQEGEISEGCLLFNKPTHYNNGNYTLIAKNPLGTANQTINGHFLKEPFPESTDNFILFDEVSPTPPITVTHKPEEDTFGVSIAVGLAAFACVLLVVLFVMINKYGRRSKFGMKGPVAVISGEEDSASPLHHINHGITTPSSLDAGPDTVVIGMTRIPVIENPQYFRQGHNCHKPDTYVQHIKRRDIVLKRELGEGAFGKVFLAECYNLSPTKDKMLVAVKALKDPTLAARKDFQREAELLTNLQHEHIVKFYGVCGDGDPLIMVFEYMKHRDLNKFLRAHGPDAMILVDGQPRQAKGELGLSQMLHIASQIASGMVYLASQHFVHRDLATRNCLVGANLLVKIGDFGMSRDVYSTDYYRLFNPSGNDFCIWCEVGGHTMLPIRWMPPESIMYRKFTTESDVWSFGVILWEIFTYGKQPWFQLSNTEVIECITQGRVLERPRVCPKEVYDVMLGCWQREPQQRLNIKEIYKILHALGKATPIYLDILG
T4 sequence (P04629 33-796 G595R): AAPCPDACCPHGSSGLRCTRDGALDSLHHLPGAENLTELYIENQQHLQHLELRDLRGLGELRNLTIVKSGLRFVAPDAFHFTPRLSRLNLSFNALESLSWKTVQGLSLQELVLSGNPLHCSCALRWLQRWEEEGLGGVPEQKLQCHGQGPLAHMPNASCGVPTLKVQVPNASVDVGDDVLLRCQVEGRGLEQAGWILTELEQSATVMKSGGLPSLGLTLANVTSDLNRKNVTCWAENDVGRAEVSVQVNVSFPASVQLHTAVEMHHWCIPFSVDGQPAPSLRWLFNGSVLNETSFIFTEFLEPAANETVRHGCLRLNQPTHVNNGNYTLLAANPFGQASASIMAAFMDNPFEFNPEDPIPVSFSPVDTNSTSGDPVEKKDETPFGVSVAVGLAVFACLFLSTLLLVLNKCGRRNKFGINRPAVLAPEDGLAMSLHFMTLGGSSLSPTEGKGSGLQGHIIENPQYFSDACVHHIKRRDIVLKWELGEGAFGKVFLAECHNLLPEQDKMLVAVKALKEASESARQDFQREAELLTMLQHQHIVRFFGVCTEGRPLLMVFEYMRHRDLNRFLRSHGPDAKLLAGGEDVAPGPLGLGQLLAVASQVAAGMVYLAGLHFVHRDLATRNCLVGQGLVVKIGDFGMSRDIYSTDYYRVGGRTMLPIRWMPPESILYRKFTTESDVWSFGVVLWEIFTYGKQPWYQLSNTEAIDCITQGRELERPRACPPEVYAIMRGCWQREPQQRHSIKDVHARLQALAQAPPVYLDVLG
T1 sequence (P04629 33-796): as the sequence (P04629 33-796 G595R) above, with R563G counted along it
T3 sequence (Q16288 32-825 isoform Q16288-3 limits assumed): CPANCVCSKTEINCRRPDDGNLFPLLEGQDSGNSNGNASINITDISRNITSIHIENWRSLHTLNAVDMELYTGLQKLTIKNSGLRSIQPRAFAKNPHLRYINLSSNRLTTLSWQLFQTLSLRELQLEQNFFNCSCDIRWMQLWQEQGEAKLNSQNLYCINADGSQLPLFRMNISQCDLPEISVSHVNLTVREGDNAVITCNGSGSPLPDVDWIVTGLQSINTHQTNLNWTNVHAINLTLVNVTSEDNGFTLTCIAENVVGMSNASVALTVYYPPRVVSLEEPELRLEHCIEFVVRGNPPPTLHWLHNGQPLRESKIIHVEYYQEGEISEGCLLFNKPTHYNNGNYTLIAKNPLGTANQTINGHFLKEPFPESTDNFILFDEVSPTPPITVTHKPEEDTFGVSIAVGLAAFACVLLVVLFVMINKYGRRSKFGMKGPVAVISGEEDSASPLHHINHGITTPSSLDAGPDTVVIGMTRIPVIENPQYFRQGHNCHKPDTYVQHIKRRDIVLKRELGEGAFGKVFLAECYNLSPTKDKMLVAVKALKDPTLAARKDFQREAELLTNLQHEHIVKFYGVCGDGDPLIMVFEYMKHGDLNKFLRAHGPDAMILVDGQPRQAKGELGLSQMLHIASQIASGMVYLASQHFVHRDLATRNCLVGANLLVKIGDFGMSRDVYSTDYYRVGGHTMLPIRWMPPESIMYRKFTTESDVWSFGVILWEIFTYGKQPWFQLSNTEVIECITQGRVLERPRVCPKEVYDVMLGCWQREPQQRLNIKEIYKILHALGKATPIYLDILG
T5 sequence (P04629 33-796 G667C): as the sequence (P04629 33-796 G595R) above, with R563G, G635C counted along it
T8 sequence (Q16288 32-839 G696A): as the sequence (Q16288 32-839 G623R) above, with R592G, G665A counted along it
T6 sequence (P04629 33-796 F589L): as the sequence (P04629 33-796 G595R) above, with F557L, R563G counted along it
T2 sequence (Q16620 32-822): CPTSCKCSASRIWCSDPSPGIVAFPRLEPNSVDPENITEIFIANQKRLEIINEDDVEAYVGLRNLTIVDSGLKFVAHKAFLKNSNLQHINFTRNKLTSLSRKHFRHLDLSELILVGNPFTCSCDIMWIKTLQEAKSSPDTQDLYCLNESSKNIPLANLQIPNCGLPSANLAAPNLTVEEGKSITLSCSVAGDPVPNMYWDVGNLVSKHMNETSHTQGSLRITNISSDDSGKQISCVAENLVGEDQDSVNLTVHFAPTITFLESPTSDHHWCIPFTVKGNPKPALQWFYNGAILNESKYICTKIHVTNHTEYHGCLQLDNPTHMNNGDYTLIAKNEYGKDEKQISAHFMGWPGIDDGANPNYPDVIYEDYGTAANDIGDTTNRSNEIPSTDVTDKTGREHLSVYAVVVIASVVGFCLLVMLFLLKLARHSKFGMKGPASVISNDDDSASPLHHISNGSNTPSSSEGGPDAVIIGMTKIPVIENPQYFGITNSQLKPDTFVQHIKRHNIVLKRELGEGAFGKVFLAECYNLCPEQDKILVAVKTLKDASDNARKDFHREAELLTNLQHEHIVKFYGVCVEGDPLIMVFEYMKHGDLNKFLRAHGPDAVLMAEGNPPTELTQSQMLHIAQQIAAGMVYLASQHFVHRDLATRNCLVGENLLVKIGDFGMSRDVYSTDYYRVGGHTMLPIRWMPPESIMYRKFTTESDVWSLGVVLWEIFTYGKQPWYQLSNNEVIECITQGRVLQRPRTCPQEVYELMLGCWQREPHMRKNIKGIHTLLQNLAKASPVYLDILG

Consider `C[C@@H](Nc1ccn2ncc(-c3cn[nH]c3)c2n1)c1cc(F)ccc1OCC(F)F` [Compound 1, (R)-N-(1-(2-(2,2-difluoroethoxy)-5-fluorophenyl)ethyl)-3-(1H-pyrazol-4-yl) pyrazolo [1,5-a] pyrimidin-5-amine], for which the IC50 at TRKA turned out to be 1.9 nM. Also, the 50% inhibitory concentration (IC50) against TRKB stood at 1.9 nM. Further, the IC50 on TRKC was determined as 3.1 nM. This compound showed an IC50 against TRKA-G595R of 0.84 nM. Moreover, on TRKA-G667C, it took 1.76 nM to reach half-maximal inhibition (IC50). In addition, the IC50 against TRKA-F589L came out at 0.22 nM. Also, the IC50 against TRKC-G623R is 0.45 nM. At TRKC-G696A, 0.76 nM corresponded to half-maximal inhibition (IC50). In [1], this compound had a CL of 126 mL/min/kg, a Vz of 48.49 L/kg, an area under the curve AUC(0-t) of 650 ng·h/mL and a Cmax of 109 ng/mL. Moreover, in data set [1], the MRT last amounted to 5.69 h, the Tmax was 0.83 h, the bioavailability came to 29.9% and the half-life was 4.44 h. In data set [2], this compound came in with an AUC(0-t) of 434 ng·h/mL, a Cmax of 260 ng/mL, a mean residence time MRT last of 3.62 h and a volume of distribution (Vd) of 16.9 L/kg. Besides, in data set [2], the clearance is 38.5 mL/min/kg and the half-life is 5.1 h.

`C[C@@H](Nc1ccn2ncc(-c3cnn(C)c3)c2n1)c1cc(F)ccc1OC(F)F` [Compound a4-8]: the IC50 was found to be 2.4 nM at TRKA; 1.5 nM against TRKB; 3.5 nM against TRKC; 1.2 nM against TRKA-G595R; 3.2 nM at TRKA-G667C; 0.4 nM against TRKA-F589L. Moreover, the IC50 is 2.9 nM against TRKC-G623R and 1.1 nM against TRKC-G696A.

As to `CC(Nc1ccn2ncc(-c3cnn(C(F)F)c3)c2n1)c1cc(F)ccc1OCCF` (stereo not drawn) [Compound a11-18, 3-(1-(difluoromethyl)-1H-pyrazol-4-yl)-N-(1-(5-fluoro-2-(2-fluoroethoxy)phenyl)ethyl) pyrazolo [1,5-a] pyrimidin-5-amine], the IC50 at TRKA amounted to 10.9 nM; at TRKA-G595R, 1.1 nM; at TRKA-G667C it was 1 nM; at TRKA-F589L it was 0.32 nM; against TRKC-G623R, 0.93 nM; on TRKC-G696A, 0.77 nM.

As to `C[C@@H](Nc1ccn2ncc(-c3cnn(C)c3)c2n1)c1cc(F)ccc1OCC(F)(F)F` [Compound a23-31, (R)-N-(1-(5-fluoro-2-(2,2,2-trifluoroethoxy)phenyl)ethyl)-3-(1-methyl-1H-pyrazol-4-yl) pyrazolo [1,5-a] pyrimidin-5-amine], the IC50 on TRKA stood at 4 nM; at TRKB, 3 nM; against TRKC, 6.1 nM; on TRKA-G595R it was 1.5 nM; at TRKA-G667C, 1.37 nM; against TRKA-F589L, 0.38 nM. The IC50 against TRKC-G623R amounted to 1.7 nM; at TRKC-G696A, 0.88 nM.

In the case of `C[C@@H](Nc1ccn2ncc(-c3cnn(CCO)c3)c2n1)c1cc(F)ccc1OCC(F)(F)F` [Compound a24-32, (R)-2-(4-(5-((1-(5-fluoro-2-(2,2,2-trifluoroethoxy)phenyl)ethyl)amino)pyrazolo [1,5-a]pyrimidin-3-yl)-1H-pyrazol-1-yl) ethanol], the concentration for half-maximal inhibition (IC50) at TRKA is 3.1 nM. The half-inhibitory concentration (IC50) at TRKB worked out at 1.4 nM. The compound further registered a half-inhibitory concentration (IC50) at TRKC of 2.9 nM. Moreover, the half-maximal inhibitory concentration (IC50) against TRKA-G595R was found to be 0.94 nM. In addition, the IC50 against TRKA-G667C stood at 1.39 nM. The 50% inhibitory concentration (IC50) at TRKA-F589L was 0.44 nM. At TRKC-G623R, the IC50 amounted to 1.1 nM. The compound also returned an IC50 against TRKC-G696A of 0.75 nM. Moreover, in data set [1], the CL came out at 105 mL/min/kg, the Vz was 28.2 L/kg, the area under the curve AUC(0-t) stood at 816 ng·h/mL and the Cmax was determined as 195 ng/mL. In addition, in [1], the MRT last was determined as 3.8 h, the Tmax was 0.5 h, the bioavailability was 47.6% and the half-life was 3.2 h. For the same compound, in data set [2], the exposure AUC(0-t) stood at 343 ng·h/mL, the Cmax worked out at 155 ng/mL, the mean residence time MRT last turned out to be 4.29 h and the volume of distribution (Vd) came to 22.8 L/kg. In data set [2], this compound gave a clearance of 47.7 mL/min/kg and a half-life of 5.51 h.

Turning to `C[C@@H](Nc1ccn2ncc(-c3cn[nH]c3)c2n1)c1cc(F)ccc1OCCF` [Compound b7-16, (R)-N-(1-(5-fluoro-2-(2-fluoroethoxy)phenyl)ethyl)-3-(1H-pyrazol-4-yl) pyrazolo [1,5-a] pyrimidin-5-amine], the concentration for half-maximal inhibition (IC50) at TRKA was found to be 2.5 nM; at TRKB it was 2.5 nM; against TRKC, 3 nM; against TRKA-G595R it was 1.1 nM; against TRKA-G667C it was 1 nM; at TRKA-F589L, 0.32 nM. The IC50 against TRKC-G623R came to 0.93 nM; against TRKC-G696A it was 0.77 nM.

As for `CC(Nc1ccn2ncc(-c3cn[nH]c3)c2n1)c1cc(F)ccc1OCCCF` (stereo not drawn) [Compound b10-34, N-(1-(5-fluoro-2-(3-fluoropropoxy)phenyl)ethyl)-3-(1H-pyrazol-4-yl) pyrazolo [1,5-a] pyrimidin-5-amine], the IC50 was 9.7 nM at TRKA, 9.8 nM at TRKB and 14.1 nM against TRKC.

For `CC(Nc1ccn2ncc(-c3cn[nH]c3)c2n1)c1cc(F)ccc1OC1CCCC1` (stereo not drawn) [Compound b13-39, N-(1-(2-(cyclopentyloxy)-5-fluorophenyl)ethyl)-3-(1H-pyrazol-4-yl) pyrazolo [1,5-a] pyrimidin-5-amine], the IC50 at TRKA is 7.9 nM; on TRKB, 5.9 nM; against TRKC, 8 nM.

Consider `CC(Nc1ccn2ncc(-c3cn[nH]c3)c2n1)c1cc(F)ccc1OC1CCOC1` (stereo not drawn) [Compound b14-40, N-(1-(5-fluoro-2-((tetrahydrofuran-3-yl)oxy)phenyl)ethyl)-3-(1H-pyrazol-4-yl) pyrazolo [1,5-a] pyrimidin-5-amine], for which the IC50 at TRKA is 4.51 nM; against TRKB, 8.6 nM; on TRKC, 11.7 nM.

With `CC(Nc1ccn2ncc(-c3cn[nH]c3)c2n1)c1cc(F)cc(OCC(F)F)c1` (stereo not drawn) [Control Compound C, reference compound], the IC50 on TRKA, against TRKB, at TRKC, against TRKA-G595R, at TRKA-G667C and against TRKA-F589L was > 1000 nM throughout. Besides, the half-maximal inhibitory concentration (IC50) against TRKC-G623R and against TRKC-G696A was > 1000 nM each time.

Turning to `CC(Nc1ccn2ncc(-c3cn[nH]c3)c2n1)c1ccc(OCC(F)F)c(F)c1` (stereo not drawn) [Control Compound D, reference compound], the IC50 on TRKA, on TRKB, on TRKC, against TRKA-G595R, on TRKA-G667C and at TRKA-F589L was > 1000 nM throughout. Moreover, the 50% inhibitory concentration (IC50) against TRKC-G623R and at TRKC-G696A was > 1000 nM each time.
